US11325937B2, “Glycoside compound and preparation method therefor, composition, application, and intermediate” (SHANGHAI HUTCHISON PHARMACEUTICALS LIMITED, priority 2018, dated 2022)
Read-outs that look alike come from different tables or passages of the source.

Tested on: VEGF-A mRNA expression in macrophages (RAW264.7)
Assay: In vitro macrophage experiment: activity of compounds to promote VEGF-A mRNA expression (RT-qPCR)
Type: cell-based
Design: Expression level of VEGF-A mRNA: unit of the concentration uncertain
Conditions: for fold induction at 1 µM / fold induction at 100 µM / fold induction at 500 µM / fold induction at 1000 µM / fold induction at 2000 µM / fold induction at 3000 µM: Mus musculus, read-out: Expression level of VEGF-A mRNA
Excerpt: 1.1. Specific steps for activity screening: 1-10×10^6 macrophages (RAW264.7) in logarithmic growth phase were transferred to a cell culture plate. The test compounds (Compounds TG-001, TG-002, TG-003, TG-004, TG-005, TG-006, TG-007, TG-008, TG-009, TG-010, TG-011, TG-012, TG-013, TG-014, TG-015, TG-016, TG-017, TG-018, TG-019, TG-020, TG-021, TG-022, TG-023, TG-024, TG-025, TG-026, TG-027, TG-028, TG-029, TG-030, TG-031, TG-032, TG-033, TG-034, TG-035, TG-036, TG-037, TG-045, TG-039, TG-040 TG-041, TG-042, TG-043, TG-044, TG-045, TG-052, TG-053, TG-054, TG-047, TG-048, TG-046, TG-049, TG-050, TG-051, TG-055 and TG-056) were respectively diluted into various concentrations, and separately added to the cell culture plate containing macrophage. The cells were cultured for 3 h in a complete medium (RPMI 1640 medium:fetal bovine serum:tri-resistance screening agent (i.e. penicillin-streptomycin-gentamicin, Beijing Leagene Biotechnology Co., Ltd.)=89:10:1 based on volume) in a cell incubator at 37° C. and 5% CO2. The cells were lyzed by Trizol (Beijing ComWin Biotech Co., Ltd) to extract RNA, and the RNA concentration was measured using a microvolume nucleic acid and protein analyzer (Nanodrop2000c). The required volume V of RNA was calculated according to the RNA concentration, and the RNA reverse transcription reaction system was prepared according to Table 1. Then RNA reverse transcription (cDNA synthesis) (RT Easy™ I (For first-strand cDNA synthesis) Reverse Transcription Kit, Chengdu ForeGene Biotechnology Co., Ltd.) was carried out according to the conditions described in Table 2. The resulting cDNA was used to prepare a fluorescence quantitative PCR reaction solution according to Table 3. The fluorescence quantitative PCR reaction conditions were set according to Table 4, and the fluorescence quantitative PCR reaction (Real time PCR Easy™-SYBR Green Fluorescence Quantification Kit, Chengdu ForeGene Biotechnology Co., Ltd.) was performed using cDNA from the reverse transcription reaction as a template. The relative expression level 2^−ΔΔCt of the target gene was calculated from the Ct value of each sample with the blank control group as a control and β-Actin as an internal reference.
Based on the maximum level of VEGF-A mRNA expression promoted by a drug at a certain concentration, the activity of the drug was determined. The expression level of VEGF-A mRNA in macrophages was defined as 1 when no drug was added. Using a traditional Chinese medicine injection Salvianolate that is used in the treatment of Cardio-cerebrovascular disease and promotes a maximum level of VEGF-A mRNA expression of 6 in macrophages (the results are shown in Table 5) as a judgment standard, the compound promoting a maximum level of VEGF-A mRNA expression of 4 or more in macrophage was a target compound. That is, when the maximum level of VEGF-A mRNA expression in macrophages promoted by the test compound is over 4-fold higher than the expression level of VEGF-A mRNA in macrophages without the addition of the test compound, the test compound was a preliminary target compound promoting angiogenesis.

[1] = 1 μM, RAW264.7 macrophages, 3 h, relative expression 2^-ΔΔCt, no drug = 1
[2] = 0.1 mM, RAW264.7 macrophages, 3 h, relative expression, no drug = 1
[3] = 0.5 mM, RAW264.7 macrophages, 3 h, relative expression, no drug = 1
[4] = 1 mM, RAW264.7 macrophages, 3 h, relative expression, no drug = 1
[5] = 2 mM, RAW264.7 macrophages, 3 h, relative expression, no drug = 1
[6] = 3 mM, RAW264.7 macrophages, 3 h, relative expression, no drug = 1

Compound | fold induction at 1 µM [1] | fold induction at 100 µM [2] | fold induction at 500 µM [3] | fold induction at 1000 µM [4] | fold induction at 2000 µM [5] | fold induction at 3000 µM [6] | other results
OC[C@H]1O[C@@H](OCCCCc2ccc(OCc3ccncc3)cc2)[C@H](O)[C@@H](O)[C@@H]1O [TG-019] | 0.74 | 0.72 | 1.03 | 5.2 | 7.03 | 2.92 | –
COc1ccc(CN(CCO[C@@H]2O[C@H](CO)[C@@H](O)[C@H](O)[C@H]2O)C(=O)OCc2ccccc2)cc1 [TG-034] | – | – | – | – | – | – | fold induction at 1 µM (RAW264.7, 3 h): 1.36; fold induction at 100 µM (RAW264.7, 3 h): 1.32; fold induction at 500 µM (RAW264.7, 3 h): 4.44; fold induction at 1000 µM (RAW264.7, 3 h): 2.93; fold induction at 2000 µM (RAW264.7, 3 h): 7.16; fold induction at 3000 µM (RAW264.7, 3 h): 5.43
CC(C)Oc1ccc(CCCCO[C@@H]2O[C@H](CO)[C@@H](O)[C@H](O)[C@H]2O)cc1 [TG-038] | 0.79 | 1.06 | 0.96 | 1.71 | 1.32 | 1.29 | –
COc1cc(CCCCO[C@@H]2O[C@H](CO)[C@@H](O)[C@H](O)[C@H]2O)cc(OC)c1OC [TG-007] | 4.38 | 1.67 | 1.42 | 2.87 | 0.65 | 0.99 | –
OC[C@H]1O[C@@H](OCCCCc2ccc(OCc3cccnc3)cc2)[C@H](O)[C@@H](O)[C@@H]1O [TG-017] | 1.54 | 1.29 | 2.55 | 5.9 | 2.29 | 2.48 | –
TG-003 | – | – | – | – | – | – | Expression level of VEGF-A mRNA [1]: 0.96; Expression level of VEGF-A mRNA (0.1 (unit uncertain), RAW264.7 macrophages, 3 h, relative expression, no drug = 1): 3.56; Expression level of VEGF-A mRNA (0.5 (unit uncertain), RAW264.7 macrophages, 3 h, relative expression, no drug = 1): 4.69; Expression level of VEGF-A mRNA (1 (unit uncertain), RAW264.7 macrophages, 3 h, relative expression, no drug = 1): 3.12; Expression level of VEGF-A mRNA (2 (unit uncertain), RAW264.7 macrophages, 3 h, relative expression, no drug = 1): 1.39; Expression level of VEGF-A mRNA (3 (unit uncertain), RAW264.7 macrophages, 3 h, relative expression, no drug = 1): 0.56
OC[C@H]1O[C@@H](OCCCCc2ccc(OCC3COC3)cc2)[C@H](O)[C@@H](O)[C@@H]1O [TG-025] | 1.62 | 1.78 | 1.43 | 2.15 | 9.69 | 2.06 | –
COc1ccc(CCCCS[C@@H]2O[C@H](CO)[C@@H](O)[C@H](O)[C@H]2O)cc1 [TG-048] | 1.43 | 1.26 | 4.73 | 11 | 3.81 | 2.19 | –
COc1ccc(COCCO[C@@H]2O[C@H](CO)[C@@H](O)[C@H](O)[C@H]2O)cc1 [TG-032] | – | – | – | – | – | – | fold induction at 1 µM (RAW264.7, 3 h): 2.79; fold induction at 100 µM (RAW264.7, 3 h): 4.89; fold induction at 500 µM (RAW264.7, 3 h): 0.92; fold induction at 1000 µM (RAW264.7, 3 h): 3.68; fold induction at 2000 µM (RAW264.7, 3 h): 1.83; fold induction at 3000 µM (RAW264.7, 3 h): 0.96
OC[C@H]1O[C@@H](OCCCCc2ccc(OCc3cccc(F)c3)cc2)[C@H](O)[C@@H](O)[C@@H]1O [TG-027] | 1.66 | 6.36 | 3.83 | 3.93 | 1.07 | 0.43 | –
COc1cc(CCCCO[C@@H]2O[C@H](CO)[C@@H](O)[C@H](O)[C@H]2O)cc(OC)c1 [TG-002] | 1.71 | 1.68 | 1.88 | 1.21 | 0.44 | 0.73 | –
OC[C@H]1O[C@@H](OCCCCc2ccc(OCc3ccc(F)cc3)cc2)[C@H](O)[C@@H](O)[C@@H]1O [TG-051] | 1.1 | 4.49 | 6.76 | 7.89 | 11.2 | 8.18 | –
COc1ccc(CCCCO[C@H]2O[C@@H](CO)[C@H](O)[C@@H](O)[C@@H]2O)cc1 [TG-029] | 2.21 | 1.51 | 1.02 | 1.54 | 2.6 | 2.3 | –
COc1ccc(N(CCCO[C@@H]2O[C@H](CO)[C@@H](O)[C@H](O)[C@H]2O)C(=O)OCc2ccccc2)cc1 [TG-035] | – | – | – | – | – | – | fold induction at 1 µM (RAW264.7, 3 h): 1.66; fold induction at 100 µM (RAW264.7, 3 h): 0.44; fold induction at 500 µM (RAW264.7, 3 h): 1.72; fold induction at 1000 µM (RAW264.7, 3 h): 1.06; fold induction at 2000 µM (RAW264.7, 3 h): 0.55; fold induction at 3000 µM (RAW264.7, 3 h): 0.2
OC[C@H]1O[C@@H](OCCCCc2ccc(OCC3CCCCC3)cc2)[C@H](O)[C@@H](O)[C@@H]1O [TG-016] | 3.09 | 1 | 1.34 | 1.54 | 2.77 | 17.1 | –
COc1cccc(CCCCO[C@@H]2O[C@H](CO)[C@@H](O)[C@H](O)[C@H]2O)c1 [TG-004] | 0.9 | 0.4 | 0.73 | 1.11 | 4.29 | 2.66 | –
COc1ccc(CCCCCO[C@@H]2O[C@H](CO)[C@@H](O)[C@H](O)[C@H]2O)cc1 [TG-005] | 0.91 | 0.36 | 2.64 | 1.15 | 1.3 | 2.39 | –
COc1ccc(NCCCO[C@@H]2O[C@H](CO)[C@@H](O)[C@H](O)[C@H]2O)cc1 [TG-037] | – | – | – | – | – | – | fold induction at 1 µM (RAW264.7, 3 h): 1.3; fold induction at 100 µM (RAW264.7, 3 h): 0.62; fold induction at 500 µM (RAW264.7, 3 h): 1.77; fold induction at 1000 µM (RAW264.7, 3 h): 1.69; fold induction at 2000 µM (RAW264.7, 3 h): 1.8; fold induction at 3000 µM (RAW264.7, 3 h): 3.23
COc1ccc(CCCCCCO[C@@H]2O[C@H](CO)[C@@H](O)[C@H](O)[C@H]2O)cc1 [TG-006] | 3.86 | 1.92 | 2.48 | 0.7 | 0.48 | 0.44 | –
COc1ccc(CCCCO[C@@H]2O[C@H](CO)[C@H](O)[C@H](O)[C@H]2O)cc1 [TG-030] | 0.43 | 0.32 | 0.09 | 0.19 | 0.19 | 0.37 | –
COc1ccc(CN(CCO[C@@H]2O[C@H](CO)[C@@H](O)[C@H](O)[C@H]2O)C(=O)OC(C)(C)C)cc1 [TG-033] | – | – | – | – | – | – | fold induction at 1 µM (RAW264.7, 3 h): 0.95; fold induction at 100 µM (RAW264.7, 3 h): 1.87; fold induction at 500 µM (RAW264.7, 3 h): 38.9; fold induction at 1000 µM (RAW264.7, 3 h): 3.76; fold induction at 2000 µM (RAW264.7, 3 h): 0.99; fold induction at 3000 µM (RAW264.7, 3 h): 0.04
OC[C@H]1O[C@@H](OCCCCc2ccc(OCC3CCC3)cc2)[C@H](O)[C@@H](O)[C@@H]1O [TG-021] | 0.87 | 2.69 | 3.81 | 4.24 | 9.2 | 7.96 | –
